Measured values from patent publication EP4603105A1, “PHARMACEUTICAL COMPOSITION CONTAINING CYCLIC COMPOUND HAVING SELECTIVE KRAS INHIBITORY EFFECT AGAINST HRAS AND NRAS” (CHUGAI SEIYAKU KABUSHIKI KAISHA, priority 2022, dated 2024).

Legend:
[1] = biological target: GDP-bound NRAS wild-type protein (Homo sapiens, UniProt P01111); assay: Binding to NRAS by surface plasmon resonance (SPR), KD and KD ratio to KRAS; conditions: ratio of the KD value with respect to GDP-bound NRAS wild-type protein to the KD value with respect to KRAS
Procedure, shortened: (§1)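 Measured at 30°C: SPR with GDP-loaded, E. coli-expressed biotin-Avi RAS captured (~100–300 RU), ascending 75 s compound injections, HBS pH 7.4 with GDP, MgCl2, 4% DMSO. KD from 1:1 fit.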

HRAS wild-type protein = HRAS wild-type protein (Homo sapiens, UniProt P01112); assay: Binding to HRAS by surface plasmon resonance (SPR), KD and KD ratio to KRAS; conditions: ratio of the KD value with respect to HRAS wild-type protein to the KD value with respect to KRAS
Procedure, shortened: as §1

[2] = tested on: human lung cancer strain NCI-H441; format: cell-based
Procedure, shortened: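 Signal came from […] measured per well once the reagent was added. Beforehand, cells were cultured at 37°C and 5% carbon dioxide on a compound series serially diluted in dimethyl sulfoxide.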

Sequence of HRAS wild-type protein (P01112 whole entry): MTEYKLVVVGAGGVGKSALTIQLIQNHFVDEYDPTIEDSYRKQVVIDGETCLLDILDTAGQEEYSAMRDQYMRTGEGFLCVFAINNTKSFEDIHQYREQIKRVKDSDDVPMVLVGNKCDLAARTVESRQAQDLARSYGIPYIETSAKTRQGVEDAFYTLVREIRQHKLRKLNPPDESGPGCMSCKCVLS
Sequence of GDP-bound NRAS wild-type protein (P01111 whole entry): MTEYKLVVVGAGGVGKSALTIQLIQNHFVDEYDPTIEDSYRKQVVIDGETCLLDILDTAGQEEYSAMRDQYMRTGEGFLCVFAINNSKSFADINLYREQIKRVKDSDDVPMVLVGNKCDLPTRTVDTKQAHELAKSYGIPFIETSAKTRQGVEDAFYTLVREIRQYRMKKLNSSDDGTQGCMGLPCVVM

Row | SMILES | NRAS /KRAS [1] | HRAS /KRAS (HRAS wild-type protein) | IC50 [2]
1 | CCO[C@@H]1C[C@H]2C(=O)NC3(CCC3)C(=O)N(C)[C@@H](C3CCCC3)C(=O)N(C)[C@H](C(=O)N3CCOCC3)CC(=O)N(C)[C@@H](CC(C)C)C(=O)N[C@@H]([C@@H](C)CC)C(=O)N(C)CC(=O)N(C)[C@H]3CCCCCN(C3=O)[C@@H](Cc3ccc(C(F)(F)F)cc3)C(=O)N(C)CC(=O)N[C@@H](CCc3cc(F)c(C(F)(F)F)c(F)c3)C(=O)N2C1 [PP0467] | B (a compound having 3 or more and less than 10 is denoted as B) | B (a compound having 3 or more and less than 10 is denoted as B) | 33.8 nM
2 | CCO[C@@H]1C[C@H]2C(=O)NC3(CCCC3)C(=O)N(C)[C@@H](C3CCCC3)C(=O)N(C)[C@H](C(=O)N(C)C)CC(=O)N(C)[C@@H](CC(C)C)C(=O)N[C@@H]([C@@H](C)CC)C(=O)N(C)CC(=O)N(C)[C@H]3CCCCCN(C3=O)[C@@H](Cc3ccc(C(F)(F)F)cc3)C(=O)N(C)CC(=O)N[C@@H](CCc3cc(F)c(C(F)(F)F)c(F)c3)C(=O)N2C1 [PP0468] | B (a compound having 3 or more and less than 10 is denoted as B) | B (a compound having 3 or more and less than 10 is denoted as B) | 37.2 nM
3 | CC[C@H](C)[C@@H]1NC(=O)[C@H](C)N(C)C(=O)C[C@@H](C(=O)N(C)C)N(C)C(=O)[C@H](C2CCCC2)N(C)C(=O)C2(CCC2)NC(=O)[C@@H]2CCCN2C(=O)[C@H](CCc2cc(F)c(C(F)(F)F)c(F)c2)NC(=O)CN(C)C(=O)[C@H](Cc2ccc(C(F)(F)F)cc2)N2CCCCC[C@@H](C2=O)N(C)C(=O)CN(C)C1=O [PP0470] | B (a compound having 3 or more and less than 10 is denoted as B) | B (a compound having 3 or more and less than 10 is denoted as B) | 51.9 nM
4 | CC[C@H](C)[C@@H]1NC(=O)[C@H](C)N(C)C(=O)C[C@@H](C(=O)N2CCOCC2)N(C)C(=O)[C@H](C2CCCC2)N(C)C(=O)C2(CCC2)NC(=O)[C@@H]2CC(F)(F)CN2C(=O)[C@H](CCc2cc(F)c(C(F)(F)F)c(F)c2)NC(=O)CN(C)C(=O)[C@H](Cc2ccc(C(F)(F)F)cc2)N2CCCCC[C@@H](C2=O)N(C)C(=O)CN(C)C1=O [PP0471] | B (a compound having 3 or more and less than 10 is denoted as B) | B (a compound having 3 or more and less than 10 is denoted as B) | 37.7 nM
5 | CC[C@H](C)[C@@H]1NC(=O)[C@H](C)N(C)C(=O)C[C@@H](C(=O)N(C)C)N(C)C(=O)[C@H](C2CCCC2)N(C)C(=O)C2(CCCC2)NC(=O)[C@@H]2CC(F)(F)CN2C(=O)[C@H](CCc2cc(F)c(C(F)(F)F)c(F)c2)NC(=O)CN(C)C(=O)[C@H](Cc2ccc(C(F)(F)F)cc2)N2CCCCC[C@@H](C2=O)N(C)C(=O)CN(C)C1=O [PP0472] | B (a compound having 3 or more and less than 10 is denoted as B) | B (a compound having 3 or more and less than 10 is denoted as B) | 24.4 nM
6 | CC[C@H](C)[C@@H]1NC(=O)[C@H](C)N(C)C(=O)C[C@@H](C(=O)N(C)C)N(C)C(=O)[C@H](C2CCCC2)N(C)C(=O)C2(CCC2)NC(=O)[C@@H]2CC(F)(F)CN2C(=O)[C@H](CCc2cc(F)c(C(F)(F)F)c(F)c2)NC(=O)CN(C)C(=O)[C@H](Cc2ccc(C(F)(F)F)cc2)N2CCCCC[C@@H](C2=O)N(C)C(=O)CN(C)C1=O [PP0473] | C (A compound having a KD ratio of 0.1 or more and less than 3 is denoted as C) | C (A compound having a KD ratio of 0.1 or more and less than 3 is denoted as C) | 14.8 nM
7 | CCO[C@@H]1C[C@H]2C(=O)NC3(CCC3)C(=O)N(C)[C@@H](C3CCCC3)C(=O)N(C)[C@H](C(=O)N3CCOCC3)CC(=O)N(C)[C@@H](C)C(=O)N[C@@H]([C@@H](C)CC)C(=O)N(C)CC(=O)N(C)[C@H]3CCCCCN(C3=O)[C@@H](Cc3ccc(C(F)(F)F)cc3)C(=O)N(C)CC(=O)N[C@@H](CCc3cc(F)c(C(F)(F)F)c(F)c3)C(=O)N2C1 [PP0474] | B (a compound having 3 or more and less than 10 is denoted as B) | B (a compound having 3 or more and less than 10 is denoted as B) | 19.9 nM
8 | CCO[C@@H]1C[C@H]2C(=O)NC3(CCCC3)C(=O)N(C)[C@@H](C3CCCC3)C(=O)N(C)[C@H](C(=O)N(C)C)CC(=O)N(C)[C@@H](C)C(=O)N[C@@H]([C@@H](C)CC)C(=O)N(C)CC(=O)N(C)[C@H]3CCCCCN(C3=O)[C@@H](Cc3ccc(C(F)(F)F)cc3)C(=O)N(C)CC(=O)N[C@@H](CCc3cc(F)c(C(F)(F)F)c(F)c3)C(=O)N2C1 [PP0475] | B (a compound having 3 or more and less than 10 is denoted as B) | B (a compound having 3 or more and less than 10 is denoted as B) | 18.7 nM
9 | CCO[C@@H]1C[C@H]2C(=O)NC3(CCC3)C(=O)N(C)[C@@H](C3CCCC3)C(=O)N(C)[C@H](C(=O)N(C)C)CC(=O)N(C)[C@@H](C)C(=O)N[C@@H]([C@@H](C)CC)C(=O)N(C)CC(=O)N(C)[C@H]3CCCCCN(C3=O)[C@@H](Cc3ccc(C(F)(F)F)cc3)C(=O)N(C)CC(=O)N[C@@H](CCc3cc(F)c(C(F)(F)F)c(F)c3)C(=O)N2C1 [PP0476] | B (a compound having 3 or more and less than 10 is denoted as B) | B (a compound having 3 or more and less than 10 is denoted as B) | 4.9 nM
10 | CC[C@H](C)[C@@H]1NC(=O)[C@H](CC(C)C)N(C)C(=O)C[C@@H](C(=O)N2CCOCC2)N(CC)C(=O)[C@H](C2CCCC2)N(C)C(=O)C2(CCCC2)NC(=O)[C@@H]2CCCN2C(=O)[C@H](CCc2cc(F)c(C(F)(F)F)c(F)c2)NC(=O)CN(C)C(=O)[C@H](Cc2ccc(C(F)(F)F)cc2)N2CCCCC[C@@H](C2=O)N(C)C(=O)CN(C)C1=O [PP0477] | A (a compound having 10 or more and less than 20 is denoted as A) | A (a compound having 10 or more and less than 20 is denoted as A) | 139 nM
11 | CC[C@H](C)[C@@H]1NC(=O)[C@H](CC(C)C)N(C)C(=O)C[C@@H](C(=O)N2CCOCC2)NC(=O)[C@H](C2CCCC2)N(C)C(=O)C2(CCCC2)NC(=O)[C@@H]2CCCN2C(=O)[C@H](CCc2cc(F)c(C(F)(F)F)c(F)c2)NC(=O)CN(C)C(=O)[C@H](Cc2ccc(C(F)(F)F)cc2)N2CCCCC[C@@H](C2=O)N(C)C(=O)CN(C)C1=O [PP0479] | B (a compound having 3 or more and less than 10 is denoted as B) | B (a compound having 3 or more and less than 10 is denoted as B) | 2440 nM
12 | CC[C@H](C)[C@@H]1NC(=O)[C@H](CC(C)C)N(C)C(=O)C[C@@H](C(=O)N2CCOCC2)N(C)C(=O)[C@H](C2CCCC2)N(C)C(=O)C2(CCCC2)NC(=O)[C@@H]2CCCN2C(=O)[C@H](CCc2cc(F)c(C(F)(F)F)c(F)c2)NC(=O)CN(C)C(=O)[C@H](Cc2ccc(C(F)(F)F)cc2)N2CCCCC[C@@H](C2=O)N(C)C(=O)[C@H](C)NC1=O [PP0481] | B (a compound having 3 or more and less than 10 is denoted as B) | B (a compound having 3 or more and less than 10 is denoted as B) | > 1000 nM
13 | CC[C@H](C)[C@@H]1NC(=O)[C@H](CC(C)C)N(C)C(=O)C[C@@H](C(=O)N2CCOCC2)N(C)C(=O)[C@H](C2CCCC2)N(C)C(=O)C2(CCCC2)NC(=O)[C@@H]2CCCN2C(=O)[C@H](CCc2cc(F)c(C(F)(F)F)c(F)c2)NC(=O)CN(C)C(=O)[C@H](Cc2ccc(C(F)(F)F)cc2)N2CCCCC[C@@H](C2=O)N(C)C(=O)CN(CC)C1=O [PP0483] | B (a compound having 3 or more and less than 10 is denoted as B) | B (a compound having 3 or more and less than 10 is denoted as B) | 525 nM
